The values below are quoted from earlier work in patent US20240384284A1, “FEED CROPS FOR REDUCED METHANOGENESIS IN LIVESTOCK” (Elysia Creative Biology, LLC, priority 2023, published 2024).

The structures appear in SMILES notation.

This data set relates to methanogenesis.

As to `BrC(Br)Br` [Bromoform], the “in vivo methane reduction” value was “up to 98%”.
